# Test results reported in PubChem BioAssay AID1259407 (Chemical Carcinogenesis Research Information System (CCRIS), 2018).
# Calls of active or inactive are those of the source. The rule behind the calls is not given here.
# System: CCRIS mutagenicity, Ames/micronucleus/aberration tests
# Test: CCRIS mutagenicity studies
# [1] = Test System: AMES SALMONELLA TYPHIMURIUM, Strain/Indicator: TA98, Metabolic Activation: NONE, Method: PREINCUBATION
# [2] = Test System: AMES SALMONELLA TYPHIMURIUM, Strain/Indicator: TA100, Metabolic Activation: NONE, Method: PREINCUBATION
# [3] = Test System: AMES SALMONELLA TYPHIMURIUM, Strain/Indicator: TA1535, Metabolic Activation: NONE, Method: PREINCUBATION
smiles,measurement,setting,value
O[C@H]1c2ccccc2-c2cc3c(ccc4ccccc43)nc2[C@@H]1O,mutagenic call,"Test System: AMES SALMONELLA TYPHIMURIUM, Strain/Indicator: TA98, Metabolic Activation: GUINEA PIG, LIVER, S-9, 3-METHYLCHOLANTHRENE, Method: STANDARD PLATE",inactive; negative
same,mutagenic call,"Test System: AMES SALMONELLA TYPHIMURIUM, Strain/Indicator: TA100, Metabolic Activation: GUINEA PIG, LIVER, S-9, 3-METHYLCHOLANTHRENE, Method: STANDARD PLATE",inactive; negative
same,mutagenic call,"Test System: CHINESE HAMSTER V-79, Strain/Indicator: V-79/6-THIOGUANINE, Metabolic Activation: GUINEA PIG, LIVER, S-9, 3-METHYLCHOLANTHRENE",active; positive
Nc1ccc2c(c1)-c1ccccc1C2,mutagenic call,"Test System: AMES SALMONELLA TYPHIMURIUM, Strain/Indicator: TA98, Metabolic Activation: RAT, LIVER, S-9, AROCLOR 1254 (2 OR 4%), Method: STANDARD PLATE",active; positive
same,mutagenic call,"Test System: AMES SALMONELLA TYPHIMURIUM, Strain/Indicator: TA100, Metabolic Activation: RAT, LIVER, S-9, AROCLOR 1254 (4%), Method: STANDARD PLATE",active; positive
same,mutagenic call,"Test System: AMES SALMONELLA TYPHIMURIUM, Strain/Indicator: TA1535, Metabolic Activation: RAT, LIVER, S-9, AROCLOR 1254 (4%), Method: STANDARD PLATE",inactive; negative
same,mutagenic call,"Test System: AMES SALMONELLA TYPHIMURIUM, Strain/Indicator: TA1537, Metabolic Activation: RAT, LIVER, S-9, AROCLOR 1254 (4%), Method: STANDARD PLATE",active; positive
CN(C)CCNC(=O)c1cccc2c(=O)c3ccccc3sc12,mutagenic call,"Test System: AMES SALMONELLA TYPHIMURIUM, Strain/Indicator: TA1537, Metabolic Activation: NONE, Method: STANDARD PLATE",active; positive
COC(=O)c1occ(-c2ccccc2)c1-c1ccccc1,mutagenic call,"Test System: AMES SALMONELLA TYPHIMURIUM, Strain/Indicator: TA98, Metabolic Activation: NONE, Method: STANDARD PLATE",inactive; negative
same,mutagenic call,"Test System: AMES SALMONELLA TYPHIMURIUM, Strain/Indicator: TA100, Metabolic Activation: NONE, Method: STANDARD PLATE",inactive; negative
C=C(C)CC(C)(C)C,mutagenic call,[1],inactive; negative
same,mutagenic call,"Test System: AMES SALMONELLA TYPHIMURIUM, Strain/Indicator: TA98, Metabolic Activation: RAT, LIVER, S-9, PHENOBARBITAL AND BETA-NAPHTHOFLAVONE, Method: PREINCUBATION",inactive; negative
same,mutagenic call,[2],inactive; negative
same,mutagenic call,"Test System: AMES SALMONELLA TYPHIMURIUM, Strain/Indicator: TA100, Metabolic Activation: RAT, LIVER, S-9, PHENOBARBITAL AND BETA-NAPHTHOFLAVONE, Method: PREINCUBATION",inactive; negative
same,mutagenic call,"Test System: AMES SALMONELLA TYPHIMURIUM, Strain/Indicator: TA102, Metabolic Activation: NONE, Method: PREINCUBATION",inactive; negative
same,mutagenic call,"Test System: AMES SALMONELLA TYPHIMURIUM, Strain/Indicator: TA102, Metabolic Activation: RAT, LIVER, S-9, PHENOBARBITAL AND BETA-NAPHTHOFLAVONE, Method: PREINCUBATION",inactive; negative
same,mutagenic call,"Test System: AMES SALMONELLA TYPHIMURIUM, Strain/Indicator: TA104, Metabolic Activation: NONE, Method: PREINCUBATION",inactive; negative
same,mutagenic call,"Test System: AMES SALMONELLA TYPHIMURIUM, Strain/Indicator: TA104, Metabolic Activation: RAT, LIVER, S-9, PHENOBARBITAL AND BETA-NAPHTHOFLAVONE, Method: PREINCUBATION",inactive; negative
same,mutagenic call,[3],inactive; negative
same,mutagenic call,"Test System: AMES SALMONELLA TYPHIMURIUM, Strain/Indicator: TA1535, Metabolic Activation: RAT, LIVER, S-9, PHENOBARBITAL AND BETA-NAPHTHOFLAVONE, Method: PREINCUBATION",inactive; negative
same,mutagenic call,"Test System: AMES SALMONELLA TYPHIMURIUM, Strain/Indicator: TA1537, Metabolic Activation: NONE, Method: PREINCUBATION",inactive; negative
same,mutagenic call,"Test System: AMES SALMONELLA TYPHIMURIUM, Strain/Indicator: TA1537, Metabolic Activation: RAT, LIVER, S-9, PHENOBARBITAL AND BETA-NAPHTHOFLAVONE, Method: PREINCUBATION",inactive; negative
same,mutagenic call,"Test System: E. COLI, Strain/Indicator: WP2UVRA/PKM101, Metabolic Activation: NONE, Method: PREINCUBATION",inactive; negative
same,mutagenic call,"Test System: E. COLI, Strain/Indicator: WP2UVRA/PKM101, Metabolic Activation: RAT, LIVER, S-9, PHENOBARBITAL AND BETA-NAPHTHOFLAVONE, Method: PREINCUBATION",inactive; negative
same,mutagenic call,"Test System: E. COLI, Strain/Indicator: WP2UVRA, Metabolic Activation: NONE, Method: PREINCUBATION",inactive; negative
same,mutagenic call,"Test System: E. COLI, Strain/Indicator: WP2UVRA, Metabolic Activation: RAT, LIVER, S-9, PHENOBARBITAL AND BETA-NAPHTHOFLAVONE, Method: PREINCUBATION",inactive; negative
CCN(CC)c1ccc2c(C(F)(F)F)cc(=O)oc2c1,mutagenic call,"Test System: AMES SALMONELLA TYPHIMURIUM, Strain/Indicator: TA1538, Metabolic Activation: NONE, Method: STANDARD PLATE",inactive; negative
same,mutagenic call,"Test System: AMES SALMONELLA TYPHIMURIUM, Strain/Indicator: TA1538, Metabolic Activation: RAT, LIVER, S-9, AROCLOR 1254, Method: STANDARD PLATE",inactive; negative
COc1cc(-c2ccc(N/N=C3\C(=O)c4ccc(N)cc4C=C3S(=O)(=O)O)c(OC)c2)ccc1N/N=C1/C=C(S(=O)(=O)O)c2ccccc2C1=O,mutagenic call,"Test System: AMES SALMONELLA TYPHIMURIUM, Strain/Indicator: TA98, Metabolic Activation: HAMSTER, LIVER, S-9, Method: PREINCUBATION (PRIVAL METHOD)",active; positive
CCCCCCCCCCCCN,mutagenic call,"End Point: In vitro Chromosomal aberrations, Test System: CHO Cells, Metabolic Activation: None",inactive; negative; cytotoxic at 12 and 18 ug/ml
same,mutagenic call,"End Point: In vitro Chromosomal aberrations, Test System: CHO Cells, Metabolic Activation: Rodent S-9",inactive; negative; cytotoxic at 12 and 18 ug/ml
CCCCC(CC)COCC1CO1 (stereo unspecified),mutagenic call,"Test System: AMES SALMONELLA TYPHIMURIUM, Strain/Indicator: TA97, Metabolic Activation: HAMSTER, LIVER, S-9, AROCLOR 1254 (10%), Method: PREINCUBATION",inactive; negative
same,mutagenic call,"Test System: AMES SALMONELLA TYPHIMURIUM, Strain/Indicator: TA97, Metabolic Activation: NONE, Method: PREINCUBATION",inactive; negative
same,mutagenic call,"Test System: AMES SALMONELLA TYPHIMURIUM, Strain/Indicator: TA97, Metabolic Activation: RAT, LIVER, S-9, AROCLOR 1254 (10%), Method: PREINCUBATION",inactive; negative
same,mutagenic call,"Test System: AMES SALMONELLA TYPHIMURIUM, Strain/Indicator: TA98, Metabolic Activation: HAMSTER, LIVER, S-9, AROCLOR 1254 (10%), Method: PREINCUBATION",inactive; negative
same,mutagenic call,[1],inactive; negative
same,mutagenic call,"Test System: AMES SALMONELLA TYPHIMURIUM, Strain/Indicator: TA98, Metabolic Activation: RAT, LIVER, S-9, AROCLOR 1254 (10%), Method: PREINCUBATION",inactive; negative
same,mutagenic call,"Test System: AMES SALMONELLA TYPHIMURIUM, Strain/Indicator: TA100, Metabolic Activation: HAMSTER, LIVER, S-9, AROCLOR 1254 (10%), Method: PREINCUBATION",inactive; negative
same,mutagenic call,[2],inactive; negative
same,mutagenic call,"Test System: AMES SALMONELLA TYPHIMURIUM, Strain/Indicator: TA100, Metabolic Activation: RAT, LIVER, S-9, AROCLOR 1254 (5 OR 30%), Method: PREINCUBATION",inactive; negative
same,mutagenic call,"Test System: AMES SALMONELLA TYPHIMURIUM, Strain/Indicator: TA100, Metabolic Activation: RAT, LIVER, S-9, AROCLOR 1254 (30%), Method: PREINCUBATION",inactive; negative
same,mutagenic call,"Test System: AMES SALMONELLA TYPHIMURIUM, Strain/Indicator: TA1535, Metabolic Activation: HAMSTER, LIVER, S-9, AROCLOR 1254 (10%), Method: PREINCUBATION",inactive; negative
same,mutagenic call,[3],inactive; negative
same,mutagenic call,"Test System: AMES SALMONELLA TYPHIMURIUM, Strain/Indicator: TA1535, Metabolic Activation: RAT, LIVER, S-9, AROCLOR 1254 (5% & 10%), Method: PREINCUBATION",active; positive
same,mutagenic call,"Test System: AMES SALMONELLA TYPHIMURIUM, Strain/Indicator: TA1535, Metabolic Activation: RAT, LIVER, S-9, AROCLOR 1254 (5 OR 10%), Method: PREINCUBATION",active; positive
same,mutagenic call,"Test System: AMES SALMONELLA TYPHIMURIUM, Strain/Indicator: TA1535, Metabolic Activation: RAT, LIVER, S-9, AROCLOR 1254 (30%), Method: PREINCUBATION",inactive; negative
